From ChEMBL document CHEMBL5614440, “Development of Novel Indole-Based Covalent Inhibitors of TEAD as Potential Antiliver Cancer Agents” (J Med Chem, 2024) come the findings set out here.

Data set [1] concerns Hs-578T. Description: Antiproliferative activity against human Hs-578T cells incubated for 3 days by CCK8 assay. The format is functional, cell-based. The note with it: 72 h.
The test system of data set [2] is Mus musculus. Description: Downregulation of Ccnd1 mRNA expression in C57BL/6 mouse hepatoblastoma tumor at 25 mg/kg, ip administered twice a week for 9 weeks and measured after 2 days post last drug treatment by qRT-PCR analysis. The note with it: time 65.0 day. The format is functional, organism-based.
Data set [3] relates to HepG2. Kind of data set: Inhibition of TEAD transcription in human HepG2 cells assessed as downregulation of CYR61 mRNA expression incubated for 24 hrs by RT-PCR analysis. The format is cell-based. The note with it: dose 0.5-15 µM.
The subject of data set [4] is HepG2. Description: Antiproliferative activity against human HepG2 cells incubated for 3 days by CCK8 assay. The format is functional, cell-based. The note with it: HepG2, 72 h.
Data set [5] deals with Mus musculus. Description: Downregulation of CTGF protein expression in C57BL/6 mouse hepatoblastoma tumor at 25 mg/kg, ip administered twice a week for 9 weeks and measured after 2 days post last drug treatment by Western blotting analysis. The format is functional, organism-based. The following applies: time 65.0 day.
Data set [6] has as its system NCI-H226. Kind of data set: Disruption of YAP to TEAD protein-protein interaction in human NCI-H226 cells at 1 uM incubated for 24 hrs by Coimmunoprecipitation method. The format is cell-based.
The test system of data set [7] is HepG2. Kind of data set: Induction of cell cycle arrest in human HepG2 cells assessed as accumulation of G1 phase cells at 5 to 10 uM incubated for 48 hrs by propidium iodide staining based flow cytometry. The following applies: dose 5-10 µM. The format is functional.
The subject of data set [8] is Mus musculus. Description: Downregulation of CTGF mRNA expression in C57BL/6 mouse hepatoblastoma tumor at 25 mg/kg, ip administered twice a week for 9 weeks and measured after 2 days post last drug treatment by qRT-PCR analysis. The format is functional, organism-based. The note with it: time 65.0 day.
Data set [9] concerns Huh-7. Kind of data set: Induction of apoptosis in human Huh-7 cells assessed as total apoptotic cells at 5 uM incubated for 48 hrs by Annexin V/PI staining based flow cytometry analysis. The format is functional.
Data set [10] is described as follows: AUCinfinity in Sprague-Dawley rat at 50 mg/kg, ip measured upto 24 hrs by LC-MS/MS analysis. The format is ADME, organism-based. The following applies: in vivo.
The subject of data set [11] is NCI-H226. Description: Disruption of YAP to TEAD protein-protein interaction in human NCI-H226 cells at 2.5 uM incubated for 24 hrs by Coimmunoprecipitation method. The format is cell-based.
For data set [12], the system named is Mus musculus. Kind of data set: In vivo inhibition of TEAD transcription in NSG mouse xenografted with human Huh-7 cells assessed as decrease in CYR61 expression at 50 mg/kg, ip administered every 3 days for 24 days by Western blotting analysis. The format is functional, organism-based. The note with it: time 24.0 day.
Data set [13] has as its system HepG2. Kind of data set: Inhibition of TEAD transcription in human HepG2 cells assessed as downregulation of CTGF mRNA expression incubated for 24 hrs by RT-PCR analysis. The format is cell-based.
For data set [14], the system named is Mus musculus. Kind of data set: Downregulation of Cyr61 protein expression in C57BL/6 mouse hepatoblastoma tumor at 25 mg/kg, ip administered twice a week for 9 weeks and measured after 2 days post last drug treatment by Western blotting analysis. The format is functional, organism-based. The following applies: time 65.0 day.
The test system of data set [15] is HepG2. Kind of data set: Induction of apoptosis in human HepG2 cells assessed as total apoptotic cells at 10 uM incubated for 48 hrs by Annexin V/PI staining based flow cytometry analysis. The format is functional.
Data set [16] can be described thus: Tmax in Sprague-Dawley rat at 50 mg/kg, ip measured upto 24 hrs by LC-MS/MS analysis. The format is ADME, organism-based. The note with it: in vivo.
Data set [17] relates to Hepatoblastoma cell line. Kind of data set: Antitumor activity against C57BL/6 mouse hepatoblastoma assessed as reduction in tumor size at 25 mg/kg, ip administered twice a week for 9 weeks and measured after 2 days post last drug treatment. The format is functional, organism-based. The following applies: time 65.0 day.
Data set [18] relates to Hepatoblastoma cell line. Kind of data set: Antitumor activity against C57BL/6 mouse hepatoblastoma assessed as reduction in tumor occurrence at 25 mg/kg, ip administered twice a week for 9 weeks and measured after 2 days post last drug treatment. The format is functional, organism-based. The note with it: time 65.0 day.
Data set [19] concerns Huh-7. Description: Induction of apoptosis in human Huh-7 cells assessed as total apoptotic cells at 10 uM incubated for 48 hrs by Annexin V/PI staining based flow cytometry analysis. The format is functional.
Data set [20] has as its system NCI-H226. Description: Antiproliferative activity against human NCI-H226 cells incubated for 3 days by CCK8 assay. The format is functional, cell-based. The note with it: NCI-H226, 72 h.
Data set [21] in a line: Half life in Sprague-Dawley rat at 50 mg/kg, ip measured upto 24 hrs by LC-MS/MS analysis. The note with it: in vivo. The format is ADME, organism-based.
For data set [22], the species on record is Homo sapiens. Kind of data set: Covalent binding affinity to human TEAD2-YBD C380S mutant variant assessed as change in protein mass at 50 uM incubated for 15 hrs by mass spectrometry analysis.
Data set [23] concerns NCI-H226. Kind of data set: Disruption of TAZ to TEAD protein-protein interaction in human NCI-H226 cells at 1 to 2.5 uM incubated for 24 hrs by Coimmunoprecipitation method. The format is cell-based. The note with it: dose 1-2.5 µM.
Data set [24] is described as follows: MRTinfinity in Sprague-Dawley rat at 50 mg/kg, ip measured upto 24 hrs by LC-MS/MS analysis. The format is ADME, organism-based. The following applies: in vivo.
The subject of data set [25] is Huh-7. Description: Antitumor activity against human Huh-7 cells xenografted in NSG mouse assessed as tumor growth inhibition at 50 mg/kg, ip administered every 3 days for 24 days and measured every 3 days. The note with it: Huh-7, 576 h, time 24 day, read-out: TGI. The format is functional.
Data set [26] deals with Mus musculus. Description: Downregulation of Afp mRNA expression in C57BL/6 mouse hepatoblastoma tumor at 25 mg/kg, ip administered twice a week for 9 weeks and measured after 2 days post last drug treatment by qRT-PCR analysis. The format is functional, organism-based. The following applies: time 65.0 day.
Data set [27] is described as follows: AUClast in Sprague-Dawley rat at 50 mg/kg, ip measured upto 24 hrs by LC-MS/MS analysis. The format is ADME, organism-based. The following applies: in vivo.
The subject of data set [28] is Mus musculus. Kind of data set: Downregulation of Gpc3 mRNA expression in C57BL/6 mouse hepatoblastoma tumor at 25 mg/kg, ip administered twice a week for 9 weeks and measured after 2 days post last drug treatment by qRT-PCR analysis. The note with it: time 65.0 day. The format is functional, organism-based.
Data set [29] relates to HEK293T. Description: Inhibition of TEAD (unknown origin) expressed in HEK293T cells transfected with 8xGTIIC-luciferase at 10 uM by dual luciferase reporter assay relative to control. The following applies: Homo sapiens. The format is cell-based.
Data set [30] concerns the target Transcriptional enhancer factor TEF-4 (Homo sapiens) (UniProt Q15562). Kind of data set: Covalent binding affinity to human TEAD2-YBD (217 to 447 residues) assessed as change in protein mass at 50 uM incubated for 15 hrs by mass spectrometry analysis.
A short description of data set [31]: Cmax in Sprague-Dawley rat at 50 mg/kg, ip measured upto 24 hrs by LC-MS/MS analysis. The format is ADME, organism-based. The following applies: in vivo.
Data set [32] relates to Huh-7. Description: Antiproliferative activity against human Huh-7 cells incubated for 3 days by CCK8 assay. The format is functional, cell-based. The note with it: Huh-7, 72 h.
Data set [33] is described as follows: Toxicity in NSG mouse assessed as change in body weight at 50 mg/kg, ip administered every 3 days for 24 days in presence of sorafenib and measured every 3 days. The format is organism-based. The following applies: in vivo, 576 h, time 24 day.
For data set [34], the system named is Huh-7. Kind of data set: Induction of cell cycle arrest in human Huh-7 cells assessed as increase in G1 phase cells at 5 to 10 uM incubated for 48 hrs by propidium iodide staining based flow cytometry (reference value: 36.4%). The format is functional. The note with it: dose 5-10 µM.
Data set [35] relates to Huh-7. Kind of data set: Inhibition of TEAD transcription in human Huh-7 cells transfected with 8xGTIIC-luciferase assessed as downregulation of CYR61 mRNA expression incubated for 24 hrs by RT-PCR analysis. The following applies: dose 0.5-15 µM. The format is cell-based.
The subject of data set [36] is Huh-7. Description: Induction of cell cycle arrest in human Huh-7 cells assessed as decrease in S phase cells at 5 to 10 uM incubated for 48 hrs by propidium iodide staining based flow cytometry. The following applies: dose 5-10 µM. The format is functional.
In data set [37] the test system is NCI-H2452. Description: Antiproliferative activity against human NCI-H2452 cells incubated for 3 days by CCK8 assay. The format is functional, cell-based. The following applies: NCI-H2452, 72 h.
For data set [38], the system named is Hepatoblastoma cell line. Description: Antitumor activity against C57BL/6 mouse hepatoblastoma assessed as reduction in number of proliferating cells at 25 mg/kg, ip administered twice a week for 9 weeks and measured after 2 days post last drug treatment by Ki67 staining based immunohistochemistry assay. The format is functional, organism-based. The note with it: time 65.0 day.

For data set [39], the system named is Mus musculus. Kind of data set: In vivo inhibition of TEAD transcription in NSG mouse xenografted with human Huh-7 cells assessed as decrease in CTGF expression at 50 mg/kg, ip administered every 3 days for 24 days by Western blotting analysis. The format is functional, organism-based. The note with it: time 24.0 day.
Data set [40] deals with Huh-7. Kind of data set: Induction of cell cycle arrest in human Huh-7 cells assessed as decrease in G2 phase cells at 5 to 10 uM incubated for 48 hrs by propidium iodide staining based flow cytometry. The format is functional. The following applies: dose 5-10 µM.
In data set [41] the test system is Mus musculus. Description: Downregulation of Cyr61 mRNA expression in C57BL/6 mouse hepatoblastoma tumor at 25 mg/kg, ip administered twice a week for 9 weeks and measured after 2 days post last drug treatment by qRT-PCR analysis. The format is functional, organism-based. The following applies: time 65.0 day.
Data set [42] concerns Huh-7. Kind of data set: (§1) Inhibition of TEAD transcription in human Huh-7 cells transfected with 8xGTIIC-luciferase by dual luciferase reporter assay. The format is cell-based.
The nature of data set [43]: as §1. The format is cell-based.
Data set [44] has as its system Huh-7. Description: Inhibition of TEAD transcription in human Huh-7 cells transfected with 8xGTIIC-luciferase assessed as downregulation of CTGF protein expression by Western blotting analysis. The format is cell-based. The following applies: dose 1.25-15 µM.
In data set [45] the test system is Huh-7. Description: Antitumor activity against human Huh-7 cells xenografted in NSG mouse assessed as tumor growth inhibition at 50 mg/kg, ip administered every 3 days for 24 days in presence of sorafenib and measured every 3 days. The format is functional. The following applies: Huh-7, 576 h, time 24 day, read-out: TGI.
In data set [46] the test system is Huh-7. Kind of data set: Antiproliferative activity against human Huh-7 cells at 10 uM incubated for 3 days by CCK8 assay. The format is functional. The following applies: time 3 day.

Active and inactive are the calls of the source. The rule behind the calls is not given here.

Transcriptional enhancer factor TEF-4 (Homo sapiens), sequence (Q15562 whole entry, the tested form may be a part): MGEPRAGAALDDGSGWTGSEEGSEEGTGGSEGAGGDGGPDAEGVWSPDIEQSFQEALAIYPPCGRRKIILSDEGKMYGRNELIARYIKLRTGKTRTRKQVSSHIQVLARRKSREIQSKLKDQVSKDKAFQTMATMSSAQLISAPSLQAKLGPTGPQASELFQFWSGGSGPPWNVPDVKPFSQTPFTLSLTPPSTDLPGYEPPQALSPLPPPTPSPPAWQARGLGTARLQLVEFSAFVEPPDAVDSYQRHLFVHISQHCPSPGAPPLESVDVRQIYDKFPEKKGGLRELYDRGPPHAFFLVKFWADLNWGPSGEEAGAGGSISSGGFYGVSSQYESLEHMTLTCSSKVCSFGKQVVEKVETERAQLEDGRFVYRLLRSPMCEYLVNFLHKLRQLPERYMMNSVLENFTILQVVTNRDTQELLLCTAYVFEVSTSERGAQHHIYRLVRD

Turning to `O=C(CCl)c1c[nH]c2cc(Cl)c(OCc3cccc(C(F)(F)F)c3)cc12`, the IC50 in data set [1] is 2.6 µM; in data set [4], 2.4 µM; in [20] it was 0.4 µM; in data set [32] it was 0.9 µM; in data set [37], 11 µM; in [43] it was 0.629 µM. In addition, the result in data set [2], in data set [5], in [6], in data set [7], in data set [8] and in [14] was Active. Besides, the result in data set [17], in data set [18], in data set [26], in [28], in data set [30] and in data set [36] was Active. Besides, the result in [38], in data set [40] and in data set [41] was Active. In addition, the inhibition entry in data set [3] is “Dose-Dependent Effect”; in [13], “Dose-Dependent Effect”; in [29], 93.6%; in data set [35], “Dose-Dependent Effect”; in data set [42], “Dose-Dependent Effect”; in data set [44], “Dose-Dependent Effect”. For the same compound, the Activity in data set [9] was 66.8%; in data set [11] it was 100%; in data set [15], 69%; in data set [19] it was 83.5%; in data set [33], “Non-Toxic”; in [34], 58.2%. This compound showed an AUC(0-inf) in [10] of 208 ng·h/mL. The inhibition entry in data set [12] and in data set [39] was “Active” each time. In addition, the Tmax in [16] amounted to 2.67 h. Also, the half-life in [21] is 6.49 h. In addition, the result in data set [22] and in data set [23] was inactive. The MRT inf in data set [24] came out at 9.65 h. The inhibition in vivo at 50 mg/kg was determined as 75% in [25] and 93% in [45]. The compound further came in with an AUC(0-t) at 24 h in data set [27] of 175 ng·h/mL. The compound also showed a Cmax in data set [31] of 28 ng/mL.
`N#C/C(=C\c1c[nH]c2cc(Cl)c(OCc3cccc4ccccc34)cc12)C(N)=O` registered an inhibition in data set [29] of 51.3%. In [46], this compound came in with an Activity of 70%.
